Source: article PMC9138090, “Study on the Neuroprotective, Radical-Scavenging and MAO-B Inhibiting Properties of New Benzimidazole Arylhydrazones as Potential Multi-Target Drugs for the Treatment of Parkinson’s Disease” (Antioxidants, 2022)

Assays:
[1] = target: T1, human recombinant MAO-B (hMAO-B) enzyme (Homo sapiens, UniProt P27338); assay: hMAO-B activity, Amplex UltraRed fluorometric method; format: biochemical; details: 1 µM
T1 construct: purchased Invitrogen, USA
T1 sequence (P27338 1-520): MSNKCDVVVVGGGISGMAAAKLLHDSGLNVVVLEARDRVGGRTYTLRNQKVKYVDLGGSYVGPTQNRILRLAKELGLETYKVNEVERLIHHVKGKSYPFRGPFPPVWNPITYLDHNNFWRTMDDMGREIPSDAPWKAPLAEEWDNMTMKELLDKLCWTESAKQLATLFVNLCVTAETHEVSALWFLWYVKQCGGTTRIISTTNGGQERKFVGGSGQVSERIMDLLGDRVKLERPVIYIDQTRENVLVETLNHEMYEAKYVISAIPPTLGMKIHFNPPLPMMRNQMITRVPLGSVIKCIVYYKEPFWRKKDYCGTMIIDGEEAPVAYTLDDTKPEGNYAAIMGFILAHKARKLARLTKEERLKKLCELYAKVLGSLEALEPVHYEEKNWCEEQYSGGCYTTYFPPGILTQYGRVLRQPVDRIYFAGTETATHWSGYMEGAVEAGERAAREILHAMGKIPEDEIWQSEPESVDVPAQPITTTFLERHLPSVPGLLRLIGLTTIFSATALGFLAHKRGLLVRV
Procedure: The effects of the test compounds on human recombinant MAO-B (hMAO-B) enzyme were studied by the Amplex UltraRed reagent (Sigma-Aldrich Chemie GmbH) fluorometric method with small modifications. The working solutions of the compounds, reagents, hMAO-B, and reaction buffers were prepared according to the producer’s instructions. The tyramine hydrochloride was used as a substrate. The reaction mixture contained a stock solution of Amplex Red (10 mM in dimethyl sulfoxide), the reaction buffer (0.05 M sodium phosphate) at pH 7.4, and the storage solution of horseradish peroxidase (10 U/mL). There were pure MAO-B working solutions in the reaction buffer and MAO-B working solution containing hydrogen peroxide as controls. The final concentration of the test compounds in the well was 1 μM. The compounds together with hMAO-B were embedded in a 96-well plate (8 wells for each compound), and then the plate was incubated for 30 min (dark, at 37 °C). Thereafter, the reaction was initiated by 50 μL Mix Solution: Amplex®Red reagent, horseradish peroxidase, and tyramine as an enzyme substrate in the reaction buffer. The fluorescence was measured every 30 min at 0, 30, 60, 90, 120, and 150 min), in dark, while shaking the reaction mixture at constant temperature of 37 °C. The fluorimetric measurements were assessed using a Synergy 2 Microplate Reader.
Monoamine oxidase B catalyzes dopamine metabolism and oxidation leading to the formation of reactive oxygen species and reactive quinones, which provoke dopamine neurotoxicity and neurodegeneration. In the next experiments, the compounds showing the best safety profile and the most promising neuroprotective activity (3d, 3e, 3h, 3i, 3m, 3n, 3p) were evaluated for their potential inhibitory activity on hMAOB. Selegiline and rasagiline as potent MAO-B inhibitors were used as standard compounds for comparison.

[2] = MTT cytotoxicity on SH-SY5Y cells; format: cell-based, human; details: human, SH-SY5Y neuroblastoma cells, MTT test, 24 h incubation; read-out: IC50, in vitro cytotoxicity on SH-SY5Y cells
Procedure: (§1) Human neuroblastoma cell line SH-SY5Y was obtained from the European Collection of Cell Cultures (ECACC, Salisbury, UK). The cells were maintained in 75 cm^2 flasks at 37 °C in a humidified atmosphere with 5% CO2 and cultured in RPMI 1640 medium, supplemented with 10% fetal bovine serum and 2 mM L-glutamine.
(§2) MTT (Sigma-Aldrich Chemie GmbH, Schnelldorf, Germany) assay is based on interaction between tetrazolium dye 3-(4,5-dimethylthiazol-2-yl)-2,5-diphenyltetrazolium bromide and succinic dehydrogenase in the living cells’ mitochondria. In this reaction, the formed purple formazan crystals indicate the presence of viable cells. SH-SY5Y cells were seeded in 96-well microplates at a density 2.5 × 10^4 cells/well and allowed to attach to the well surface at 37 °C in a humidified atmosphere with 5% CO2 (24 h). Different concentrations of compounds ([…]) were added to cells and incubated for 24 h. For each concentration, a set of at least 8 wells were used. After the treatment, the solution in each well was substituted with MTT (3-(4,5-dimethylthiazol-2-yl)-2,5-diphenyltetrazolium bromide) solution (0.5 mg/mL in culture medium). The microplates were further incubated for 3 h at 37 °C and the obtained formazan crystals were dissolved by 100 µL/well of DMSO. The absorbance was measured in a multiplate reader Synergy 2 (BioTek Instruments, Inc, Highland Park, Winooski, VT, USA) at 570 nm (690 nm for background absorbance).
(§3) An important step in the development of new pharmacologically active compounds is the establishment of their safety profile. An in vitro toxicity evaluation was carried out on the neuroblastoma cell line SH-SY5Y, which is a well-established model in neuroscience. The neuroblastoma SH-SY5Y are human derived cells with relatively homogeneous neuroblast-like structure. The cells express a dopamine-β-hydroxylase and tyrosine hydroxylase enzyme activity, specific types of human proteins and protein isoforms. The possible neurotoxic effects of the potential drug candidates were measured by cell viability assay (MTT-test). The IC50 values were used as a robust parameter for comparison. The test compounds were dissolved in DMSO and serially diluted in cell culture medium to achieve final concentrations ranging from 1 to 500 µM; the culture medium containing DMSO in the corresponding concentration was used as untreated controls. A concentration dependent effect on cell viability was observed after 24 h incubation.

SH-SY5Y cells = assay: MTT cytotoxicity on SH-SY5Y cells; format: cell-based, human; details: MTT test, 24 h incubation; read-out: IC50, in vitro cytotoxicity on SH-SY5Y cells
Procedure: as §1, §2, §3

[3] = Fe(II)-induced oxidative damage of lecithin (TBA-RS); details: 90 µmol/L; for sample/control absorbance ratio (% of the control), lecithin peroxidation: lecithin 1 mg/mL, FeCl2 0.1 mmol/L
Procedure: The classical method of determining the TBA-reactive substances at 532 nm as described by Asakawa and Matsushita has been used. Two groups of measurement compositions named controls and samples were prepared in phosphate buffer (K2HPO4/KH2PO4, pH 7.4) for each of the used substrates. Both of them contained equivalent concentrations of lecithin (1 mg/mL) or 2-deoxyribose (0.5 mmol/L) and FeCl2 (0.1 mmol/L). In the controls, the tested hydrazones have been omitted and in the samples the effect of the newly designed compounds at the concentrations indicated below the figures has been determined. The obtained samples were incubated at 37 °C for 30 min. The reaction was stopped, and after adding 0.5 mL 2.8% trichloroacetic acid and 0.5 mL of thiobarbituric acid, the samples were heated in boiling water for 20 min. The lecithin containing samples were centrifuged at 3000 rpm for 20 min and the supernatant was aspired out. The results have been presented as a percentage of the control sample, treated only with ferrous iron where we expected maximum oxidative damage under the described conditions.

Row | Structure (SMILES) | melting point | inhibitory effect on hMAOB activity (in words) [1] | IC50 at 24 h [2] | IC50 (SH-SY5Y cells) | sample/control absorbance ratio (% of the control), lecithin peroxidation [3] | lecithin peroxidation effect compared with 3a (in words) [3]
1 | O=C(CCn1c(=S)n(CCC(=O)N/N=C/c2ccccc2)c2ccccc21)N/N=C/c1ccccc1 [3a] | 246 to 248 °C | – | 103 µM | – | 66.52% | –
2 | COc1cc(C=NNC(=O)CCn2c(=S)n(CCC(=O)NN=Cc3cc(OC)c(O)c(OC)c3)c3ccccc32)cc(OC)c1O [3d, 3,3′-(2-Thioxo-1H-benzo[d]imidazole-1,3(2H)-diyl)bis(N′-(4-hydroxy-3,5-dimethoxybenzylidene)propanehydrazide)] | 284 to 286 °C | statistically significant MAO-B inhibitory effects | > 250 µM | 268 µM | around 40% | –
3 | COc1cc(C=NNC(=O)CCn2c(=S)n(CCC(=O)NN=Cc3ccc(O)c(OC)c3)c3ccccc32)ccc1O [3b, 3,3′-(2-Thioxo-1H-benzo[d]imidazole-1,3(2H)-diyl)bis(N′-(4-hydroxy-3-methoxybenzylidene)propanehydrazide)] | 229 to 231 °C | – | 101 µM | – | – | –
4 | Cc1c(C)c2c(c(C)c1O)CCC(C)(C(=O)O)O2 (centres unmarked) [Trolox, reference compound] | – | – | – | – | around 25% | –
5 | COc1ccc(C=NNC(=O)CCn2c(=S)n(CCC(=O)NN=Cc3ccc(OC)c(OC)c3)c3ccccc32)cc1OC [3c, 3,3′-(2-Thioxo-1H-benzo[d]imidazole-1,3(2H)-diyl)bis(N′-(3,4 dimethoxybenzylidene)propanehydrazide)] | 239 to 241 °C | – | 112 µM | – | – | statistically identical effect to 3a
6 | O=c1c(O)c(-c2ccc(O)c(O)c2)oc2cc(O)cc(O)c12 [Quercetin, reference compound] | – | – | – | – | around 25% | –
7 | O=C(CCn1c(=S)n(CCC(=O)NN=Cc2cccc(O)c2)c2ccccc21)NN=Cc1cccc(O)c1 [3f, 3,3′-(2-Thioxo-1H-benzo[d]imidazole-1,3(2H)-diyl)bis(N′-(3-hydroxybenzylidene)propanehydrazide)] | 223 to 224 °C | – | 77.7 µM | – | – | –

Continued, in another order:

Row | melting point | Structure (SMILES) | inhibitory effect on hMAOB activity (in words) [1] | IC50 at 24 h [2] | IC50 (SH-SY5Y cells) | sample/control absorbance ratio (% of the control), lecithin peroxidation [3] | lecithin peroxidation effect compared with 3a (in words) [3]
8 | 205 to 207 °C | COc1cc(O)ccc1C=NNC(=O)CCn1c(=S)n(CCC(=O)NN=Cc2ccc(O)cc2OC)c2ccccc21 [3p, 3,3′-(2-Thioxo-1H-benzo[d]imidazole-1,3(2H)-diyl)bis(N′-(4-hydroxy-2-methoxybenzylidene)propanehydrazide)] | statistically significant MAO-B inhibitory effects | > 250 µM | 254 µM | – | –
9 | 268 to 270 °C | COc1cccc(C=NNC(=O)CCn2c(=S)n(CCC(=O)NN=Cc3cccc(OC)c3O)c3ccccc32)c1O [3l, 3,3′-(2-Thioxo-1H-benzo[d]imidazole-1,3(2H)-diyl)bis(N′-(2-hydroxy-3-methoxybenzylidene)propanehydrazide)] | – | > 200 µM | 200 µM | – | –
10 | 212 to 214 °C | O=C(CCn1c(=S)n(CCC(=O)NN=Cc2ccc(O)c(O)c2)c2ccccc21)NN=Cc1ccc(O)c(O)c1 [3j, 3,3′-(2-Thioxo-1H-benzo[d]imidazole-1,3(2H)-diyl)bis(N′-(3,4-dihydroxybenzylidene)propanehydrazide)] | – | 187 µM | – | around 40% | –
11 | 272 to 274 °C | COc1cccc(O)c1C=NNC(=O)CCn1c(=S)n(CCC(=O)NN=Cc2c(O)cccc2OC)c2ccccc21 [3n, 3,3′-(2-Thioxo-1H-benzo[d]imidazole-1,3(2H)-diyl)bis(N′-(2-hydroxy-6-methoxybenzylidene)propanehydrazide)] | statistically significant MAO-B inhibitory effects | > 250 µM | 269 µM | – | –
12 | 279 to 280 °C | O=C(CCn1c(=S)n(CCC(=O)NN=Cc2ccc(O)c(O)c2O)c2ccccc21)NN=Cc1ccc(O)c(O)c1O [3k, 3,3′-(2-Thioxo-1H-benzo[d]imidazole-1,3(2H)-diyl)bis(N′-(2,3,4-trihydroxybenzylidene)propanehydrazide)] | – | 65.3 µM | – | – | statistically identical effect to 3a
13 | 174 to 176 °C | COc1cc(/C=N/NC(=O)CCn2c(=S)n(CCC(=O)N/N=C/c3cc(O)c(O)c(OC)c3)c3ccccc32)cc(O)c1O [3q, 3,3′-(2-Thioxo-1H-benzo[d]imidazole-1,3(2H)-diyl)bis(N′-(3,4-hydroxy-5-methoxybenzylidene)propanehydrazide)] | – | 77.7 µM | – | around 40% | –
14 | 281 to 283 °C | O=C(CCn1c(=S)n(CCC(=O)NN=Cc2ccc(O)cc2)c2ccccc21)NN=Cc1ccc(O)cc1 [3g, 3,3′-(2-Thioxo-1H-benzo[d]imidazole-1,3(2H)-diyl)bis(N′-(4-hydroxybenzylidene)propanehydrazide)] | – | 77.8 µM | – | – | –
15 | 255 to 257 °C | COc1ccc(C=NNC(=O)CCn2c(=S)n(CCC(=O)NN=Cc3ccc(OC)c(O)c3)c3ccccc32)cc1O [3o, 3,3′-(2-Thioxo-1H-benzo[d]imidazole-1,3(2H)-diyl)bis(N′-(3-hydroxy-4-methoxybenzylidene)propanehydrazide)] | – | 73.6 µM | – | – | –
